The subject of one series is hPSC-parasymNs. Description: MEA neural activity of hPSC-parasymNs. It counts as cell-based, human. Particulars: for parasymN activity (relative MFR: mean firing rate): 1 μM vs control, day 30 hPSC-parasymNs.
The subject of the next series is hPSC-symNs. Description: MEA neural activity of hPSC-symNs. It counts as cell-based, human. The settings on record: 6-OHDA 100 μM, normalized to vehicle.
In a further series the test system is symN. Description: 6-OHDA toxicity in symN (western blot, immunostaining, microscopy). The class given is cell-based, human. On the procedure: Day 30 parasymNs and symNs on 6-well plates were prepared for sample collection. One well for each sample. Cells were washed by PBS and scraped after incubating with lysis buffer contains RIPA buffer (Sigma-Aldrich, R0278, 1×), PMSF protease inhibitor (Thermo Fisher Scientific, 36978, 1 mM) and PhosSTOP phosphatase inhibitor (Sigma-Aldrich, 4906845001). Protein concentration was measured using Bradford reagent (Bio-Rad, 5000006). Proteins were loaded as 20 μg/well and ran in 12% acrylamide gel. After the transfer, nitrocellulose membranes were blocked by 5% skim milk in TBST.
Membranes were incubated with primary antibodies overnight at 4° C. The next day, membranes were washed by PBST and incubated with secondary antibodies for one hour at room temperature. Images were taken using the iBright western blot imager (Invitrogen, FL1500).
(§1) Cells were fixed by 4% paraformaldehyde for 20 minutes and washed twice by PBS. Fixed cells were permeabilized by 0.3% Triton, 1% BSA and 3% goat or donkey serum in 1× PBS for 20 minutes, and incubated with primary antibodies overnight at 4° C. The next day, cells were washed and incubated with secondary antibodies for one hour at room temperature. Lastly, cells were washed and incubated with DAPI (Sigma, D9542, 1:1000) for 15 minutes at room temperature. Fluorescent images were taken using the Lionheart FX Automated Microscope.

A further series relates to parasymN. Description: 6-OHDA toxicity in parasymN (microscopy). The settings on record: parasymN after 6-OHDA. The class given is cell-based, human. On the procedure:
as §1

Series [1] has as its system non-neural contaminating cell types. Description: Purification of non-neural contaminating cells in parasymN differentiation. The settings on record: AraC added during the differentiation. The class given is cell-based, human. On the procedure:
FIG. 13A illustrates that cell cycle inhibitor AraC was added during the differentiation.

For series [2], the system named is 3T3-L1-derived white adipocytes. Briefly: Lipolysis assay, 3T3-L1-derived white adipocytes alone. It counts as cell-based, mouse. The settings on record: 10 μM isoproterenol; differentiated adipocytes alone. On the procedure:
3T3-L1 were seeded at 20×10^3 cells/cm^2 and fed until 80% confluency, which was defined as day 0. From day 0-3, cells were fed with the differentiation medium containing DMEM (Gibco, 11965118), 10% FBS, 0.5 mM IBMX (Cayman, 13347), 1 μM dexamethasone (Sigma, D2915), and 10 μg/ml insulin (Sigma, 19278). From day 3-6, cells were fed with post-differentiation medium containing DMEM, 10% FBS, and 10 μg/ml insulin. After day 6, cells were maintained in DMEM with 10% FBS until the desired timepoints. To begin with, adipocyte culture medium was replaced with prewarmed lipolysis medium containing 0.5% BSA in DMEM, and cells were incubated for 4 hours at 37° C. After 4 hours, the lipolysis medium was replaced with fresh prewarmed lipolysis medium with test drugs and incubate for 90 minutes at 37° C. […] Glycerol release in adipocyte cultured medium was measured using Adipolysis Assay Kit (Cayman, 10009381) according to manufacturer's instruction.

Series [3] has the same test system. Description: Lipolysis assay, white adipocytes with or without parasymN co-culture. It counts as cell-based, mouse.
Protocol: To begin with, adipocyte culture medium was replaced with prewarmed lipolysis medium containing 0.5% BSA in DMEM, and cells were incubated for 4 hours at 37° C. After 4 hours, the lipolysis medium was replaced with fresh prewarmed lipolysis medium with test drugs and incubate for 90 minutes at 37° C. Then, the cell culture medium was collected for the assay or stored at −20° C. for long-term storage. Glycerol release in adipocyte cultured medium was measured using Adipolysis Assay Kit (Cayman, 10009381) according to manufacturer's instruction.
To test whether adipose functions can be regulated by parasymN activity, the lipolytic activity was compared.
The test system of another series is mouse salivary cell. Description: Calcium imaging of parasymN and mouse salivary cell coculture. The class given is cell-based. Particulars: coculture with parasymN; nicotine stimulation. The source says:
FIG. 14B is a plot showing calcium imaging for salivary cell only upon nicotine stimulation.

Another series relates to hPSC-CMs. Particulars: nicotine 1 μM; co-culture with hPSC-parasymNs; MEA.

Protocol for hPSC-CMs: CM differentiation. […] Briefly, 80-90% confluent H9 ESCs were replated at a 1 to 5 ratio on Matrigel (Corning, 1:20)-coated plates. When cells reached 90% confluency, medium was changed to CDBM base medium, that contains DMEM/F12 (Gibco, 11320033), 64 mg/L ascorbic acid, 13.6 μg/L sodium selenium (Sigma, S5261), 10 μg/ml transferrin (Sigma, T3309) and Chemically Defined Lipid Concentrate (Gibco, 11905031). 5 μM CHIR99021 was added to CDBM medium on day 0. 0.6 U/ml heparin ([sequence] Technologies, 07980) was added to CDBM medium on day 1, 5, 6. 0.6 U/ml heparin and 3 μM XAV were added to CDBM medium on day 2, 3, 4. After day 7, medium was changed to CM maintenance medium that contains CDBM base, 20 μg/ml insulin (Sigma, 1-034), and 2% FBS. CMs were replated on day 10 using accutase at 200×10^3 cells/cm^2 on Matrigel-coated plates. […]
(§2) For neural activity measurements, day 16 SCPs were plated on PO/LM/FN coated MEA plates (Axion BioSystems, BioCircuit or CytoView) at 100×10^3 cells/cm^2. […] Activity of differentiated parasymNs or CMs/SMCs on desired timepoints was measured using a MEA plate reader (Axion BioSystems, Maestro Pro) under the neural detection mode or cardiac detection mode, respectively, according to manufacturer's instruction.
Protocol for hPSC-parasymNs: as §2
Protocol for hPSC-symNs: as §2

Turning to `NCCc1cc(O)c(O)cc1O` [6-OHDA], the “relative MFR over 12 hours after 6-OHDA” value is “remained unaffected” in the series on hPSC-parasymNs (6-OHDA 100 μM, hPSC-parasymNs, normalized to vehicle) and “displayed early hyperactivity” in the series with hPSC-symNs. Also, the “cell death markers PUMA/c-Cas3, western blot” value in the series with symN (12 hours after treating parasymN/symN with 6-OHDA) is recorded as “increased only in symN”. Besides, in the series with symN (24 hours after treating parasymN/symN with 6-OHDA), the “cell death marker c-Cas3, percentage of cells by immunostaining” value is “increased only in symN”. Moreover, the results for the “neural morphology by microscopy” value with symN (symN after 6-OHDA) and in the series with parasymN were “damaged neural morphology” and “almost intact”, respectively.
Take `Nc1ccn([C@@H]2O[C@H](CO)[C@@H](O)[C@@H]2O)c(=O)n1` [AraC]: the “contaminating cells by immunostaining” value in series [1] is recorded as “reduced”.
With `CC(C[N+](C)(C)C)OC(N)=O` (stereo not shown) [BeCh, bethanechol], in the series on hPSC-parasymNs (MEA), the “parasymN activity (relative MFR: mean firing rate)” value is “activated”.
Consider `CN1[C@@H]2CC[C@H]1C[C@@H](OC(=O)C(CO)c1ccccc1)C2` (stereo partly shown) [atropine], for which, in the series on hPSC-parasymNs (MEA), the “parasymN activity (relative MFR: mean firing rate)” value is recorded as “inactivated”.
In the case of `CC(C)NCC(O)c1ccc(O)c(O)c1` (stereo not shown) [isoproterenol], the “lipolytic activity (glycerol release)” value in [2] is “displayed lipolytic activity”. Also, the “lipolytic levels induced by isoproterenol (normalized glycerol release)” value in [3] (10 μM isoproterenol, adipocytes co-cultured with parasymNs) is on record as “counteracted”.
In the case of `CN1CCCC1c1cccnc1` (stereo not shown) [nicotine], the “parasymN activity (relative MFR: mean firing rate)” value with hPSC-parasymNs (MEA) is recorded as “further inducible”. Further, the “lipolysis levels (glycerol release)” value in series [3] (1 μM nicotine, adipocytes only or parasymN co-cultured) is listed as “remained unchanged”. Moreover, the “salivary cell activity (calcium imaging)” value in the series on mouse salivary cell is listed as “increased”. Further, in the series on hPSC-CMs, the “beating of hPSC-CMs (relative beats/min)” value was “decreased”.
Turning to “angiotensin II (DRVYIHPF; Angiotensin-2; UniProt P01019 25-32, looked up) [Ang II, angiotensin II of the renin-angiotensin-aldosterone system]”, the “parasymN activity (fold change of MFR)” value with hPSC-parasymNs (angiotensin II vs control (DMSO), MEA) is recorded as “decreased”.

The record behind these values is patent publication US20240150709A1, “COMPOSITIONS AND METHODS FOR MAKING PARASYMPATHETIC NEURONS” (University of Georgia Research Foundation, Inc., priority 2022, published 2024).
